The values below come from US12692237B2, “Continuous method for preparing tricyanoimidazole” (UCHICAGO ARGONNE, LLC, priority 2022, dated 2026).

Data set [1] can be described thus: Solvent screening: solubility of DCI-NH2 slurried in acetonitrile plus various solvents. It counts as physicochemical. The note with it: for Solubility, +100 uL solvent / Solubility, +200 uL water: +100 uL solvent. How it is done:
Samples of DCI-NH2 (40 mg) were slurried in acetonitrile (0.25 ml) plus various solvents (0.05 ml).

Experiment in data set [2]: as above
The format is physicochemical. Conditions: 40 mg in MeCN:water = 0.5:0.2 mL.

Setting [3] is: 40 mg in acetonitrile 0.25 ml + NMP 0.05 ml.
Setting [4] is: 40 mg in acetonitrile 0.25 ml + Nitromethane 0.05 ml.
Setting [5] is: 40 mg in acetonitrile 0.25 ml + Propylene carbonate 0.05 ml.
Where [6] appears, read: 40 mg in acetonitrile 0.25 ml + Sulfolane 0.05 ml.

Molecules are shown by their SMILES.

With `N#Cc1nc(N)[nH]c1C#N` [DCI-NH2, 2-amino-1H-imidazole-4,5-dicarbonitrile], the Solubility result in data set [1] (40 mg in acetonitrile 0.25 ml + Diglyme 0.05 ml) was “soluble”; in data set [1] (40 mg in acetonitrile 0.25 ml + Dmso 0.05 ml), “soluble”; in data set [1] (setting [3]), “partial”; in data set [1] (setting [4]), “No”; in data set [1] (setting [5]), “No”; in data set [1] (setting [6]), “No”. Moreover, in data set [2], the Solubility entry was “soluble”. Further, the “Solubility, +100 uL solvent” value in data set [1] (setting [3]) is reported as “soluble”; in data set [1] (setting [4]), “No”; in data set [1] (setting [5]), “No”; in data set [1] (setting [6]), “No”. The “Solubility, +200 uL water” value in data set [1] (setting [4]) is given as “No”; in data set [1] (setting [5]) it was “soluble”; in data set [1] (setting [6]), “soluble”.
